Experimental data as given in ChEMBL document CHEMBL1201862, “PubChem BioAssay data set” (2004).
The source made the active and inactive calls.

Columns and labels:
[1] = Luminescence Cell-Based Dose Retest to Confirm Inhibitors of Cancer Stem Cells. [Related pubchem assays (depositor defined):AID2717, AID2721]; format: functional; details: Homo sapiens
[2] = tested on: HEK293; experiment: cells; format: functional, cell-based; details: Homo sapiens
[3] = tested on: HEK293; experiment: NOD2 signaling inhibitors in MDP-stimulated cells, cell-based, uHTS, luminescence (AID 2001); format: functional; details: Homo sapiens
[4] = tested on: HEK293; experiment: cells; format: functional, cell-based; details: Homo sapiens; remark: listed apart in the source
[5] = tested on: BJ; experiment: cytotoxicity toward BJ-TERT fibroblasts, dose response, cell-based, RAS-independent, luminescence (AID 1933); format: functional; details: Homo sapiens
[6] = biological target: T1, Microphthalmia-associated transcription factor (Homo sapiens, UniProt O75030); experiment: TRPM1 promoter luciferase signal decrease, dose response, MITF inhibitor project, cell-based, SK-MEL-5, cherry-picked, set 3 (AID 493073); format: functional
T1 sequence (O75030 whole entry): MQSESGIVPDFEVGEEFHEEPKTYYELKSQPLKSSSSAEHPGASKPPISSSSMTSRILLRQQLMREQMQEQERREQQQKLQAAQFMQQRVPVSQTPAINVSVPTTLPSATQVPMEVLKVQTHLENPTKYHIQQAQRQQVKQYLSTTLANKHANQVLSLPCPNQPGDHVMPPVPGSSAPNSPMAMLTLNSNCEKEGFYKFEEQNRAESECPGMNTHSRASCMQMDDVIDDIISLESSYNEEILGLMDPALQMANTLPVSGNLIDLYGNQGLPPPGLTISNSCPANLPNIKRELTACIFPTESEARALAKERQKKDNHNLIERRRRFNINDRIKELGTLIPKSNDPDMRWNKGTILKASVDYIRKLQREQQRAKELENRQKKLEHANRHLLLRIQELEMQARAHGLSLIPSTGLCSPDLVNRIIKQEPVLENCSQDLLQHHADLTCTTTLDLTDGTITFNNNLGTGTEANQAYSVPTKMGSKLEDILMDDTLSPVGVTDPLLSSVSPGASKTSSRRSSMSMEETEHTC

[7] = tested on: BJ; experiment: cytotoxicity toward BJ-TERT-LT-ST fibroblasts, dose response, cell-based, RAS-independent, luminescence (AID 1935); format: functional; details: Homo sapiens;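 also: BJ fibroblasts immortalized with TERT plus LT and ST oncogenes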
[8] = biological target: Nucleotide-binding oligomerization domain-containing protein 2 (Homo sapiens, UniProt Q9HC29); experiment: NOD2 signaling inhibitors, cell-based, luminescence, uHTS, HEK293 (AID 1566); format: functional
Nucleotide-binding oligomerization domain-containing protein 2, sequence (Q9HC29 whole entry, the tested form may be a part): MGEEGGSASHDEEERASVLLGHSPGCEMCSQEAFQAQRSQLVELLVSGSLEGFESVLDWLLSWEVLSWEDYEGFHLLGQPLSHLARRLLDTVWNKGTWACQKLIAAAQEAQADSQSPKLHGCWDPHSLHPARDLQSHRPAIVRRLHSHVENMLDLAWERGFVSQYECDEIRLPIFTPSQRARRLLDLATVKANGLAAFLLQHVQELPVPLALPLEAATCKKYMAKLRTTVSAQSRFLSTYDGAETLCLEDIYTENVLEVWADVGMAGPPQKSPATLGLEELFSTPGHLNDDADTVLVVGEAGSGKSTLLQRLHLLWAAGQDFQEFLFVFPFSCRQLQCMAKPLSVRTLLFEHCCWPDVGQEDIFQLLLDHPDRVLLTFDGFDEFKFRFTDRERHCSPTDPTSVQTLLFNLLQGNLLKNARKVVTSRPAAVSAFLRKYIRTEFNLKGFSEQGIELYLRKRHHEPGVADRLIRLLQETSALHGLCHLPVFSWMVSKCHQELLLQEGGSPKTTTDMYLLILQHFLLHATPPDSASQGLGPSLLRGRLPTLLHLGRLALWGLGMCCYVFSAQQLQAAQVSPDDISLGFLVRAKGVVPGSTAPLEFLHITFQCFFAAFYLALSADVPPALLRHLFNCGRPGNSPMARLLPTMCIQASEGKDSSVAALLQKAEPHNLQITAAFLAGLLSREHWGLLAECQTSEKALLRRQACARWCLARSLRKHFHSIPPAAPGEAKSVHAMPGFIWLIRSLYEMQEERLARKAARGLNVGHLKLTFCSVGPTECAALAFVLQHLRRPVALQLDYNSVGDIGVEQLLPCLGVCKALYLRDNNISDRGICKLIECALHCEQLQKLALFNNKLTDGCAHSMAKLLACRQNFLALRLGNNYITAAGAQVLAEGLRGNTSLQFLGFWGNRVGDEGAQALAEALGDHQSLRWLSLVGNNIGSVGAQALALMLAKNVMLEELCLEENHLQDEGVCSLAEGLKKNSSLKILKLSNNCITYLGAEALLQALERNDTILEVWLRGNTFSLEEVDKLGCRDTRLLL

[9] = cytotoxicity toward DRD oncogenic fibroblasts, dose response, cell-based, non-viral oncogenic, luminescence (AID 1934); format: functional; details: Homo sapiens
[10] = tested on: HEK293; experiment: NOD1 signaling inhibitors, primary screen, cell-based, luminescence, uHTS (AID 1578); format: functional; details: Homo sapiens
[11] = biological target: G-protein coupled receptor 55 (Homo sapiens, UniProt Q9Y2T6); experiment: GPR55 agonists via beta-arrestin recruitment, primary screen, imaging, U2OS cells, beta-arrestin-GFP redistribution (AID 1961); format: functional
G-protein coupled receptor 55, sequence (Q9Y2T6 whole entry): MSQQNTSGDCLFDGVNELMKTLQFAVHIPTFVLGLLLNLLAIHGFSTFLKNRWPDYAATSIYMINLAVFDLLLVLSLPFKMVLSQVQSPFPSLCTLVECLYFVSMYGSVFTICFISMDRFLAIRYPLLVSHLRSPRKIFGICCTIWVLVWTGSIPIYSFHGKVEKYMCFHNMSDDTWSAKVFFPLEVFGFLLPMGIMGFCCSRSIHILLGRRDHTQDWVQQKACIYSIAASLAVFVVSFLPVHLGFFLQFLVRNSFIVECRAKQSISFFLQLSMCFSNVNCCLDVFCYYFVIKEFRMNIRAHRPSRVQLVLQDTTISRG

[12] = tested on: BJ; experiment: cells; format: functional, cell-based; details: Homo sapiens
[13] = tested on: HEK293; experiment: cells; format: functional, cell-based; details: Homo sapiens; remark: listed apart in the source
[14] = biological target: Trypsin (Sus scrofa, UniProt P00761); experiment: porcine trypsin inhibitors, dose response, selectivity assay for Rce1 protease inhibitor project, biochemical, quenched peptide fluorescence, cherry-pick (AID 488789)
[15] = biological target: T2, CAAX prenyl protease 2 (Saccharomyces cerevisiae S288c, UniProt Q03530); format: biochemical
T2 sequence (Q03530 whole entry): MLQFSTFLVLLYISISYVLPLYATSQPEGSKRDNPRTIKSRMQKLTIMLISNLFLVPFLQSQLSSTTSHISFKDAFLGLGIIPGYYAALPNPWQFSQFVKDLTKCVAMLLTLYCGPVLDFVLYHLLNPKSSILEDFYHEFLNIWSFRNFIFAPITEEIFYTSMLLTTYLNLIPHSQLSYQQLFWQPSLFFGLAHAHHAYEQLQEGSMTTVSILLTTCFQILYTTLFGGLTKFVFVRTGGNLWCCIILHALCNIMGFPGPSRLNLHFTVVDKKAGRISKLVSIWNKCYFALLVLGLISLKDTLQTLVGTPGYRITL

[16] = biological target: T3, Nucleotide-binding oligomerization domain-containing protein 1 (Homo sapiens, UniProt Q9Y239); experiment: NOD1 signaling inhibitors, SAR follow-up, revised (AID 2333); format: functional
T3 sequence (Q9Y239 whole entry): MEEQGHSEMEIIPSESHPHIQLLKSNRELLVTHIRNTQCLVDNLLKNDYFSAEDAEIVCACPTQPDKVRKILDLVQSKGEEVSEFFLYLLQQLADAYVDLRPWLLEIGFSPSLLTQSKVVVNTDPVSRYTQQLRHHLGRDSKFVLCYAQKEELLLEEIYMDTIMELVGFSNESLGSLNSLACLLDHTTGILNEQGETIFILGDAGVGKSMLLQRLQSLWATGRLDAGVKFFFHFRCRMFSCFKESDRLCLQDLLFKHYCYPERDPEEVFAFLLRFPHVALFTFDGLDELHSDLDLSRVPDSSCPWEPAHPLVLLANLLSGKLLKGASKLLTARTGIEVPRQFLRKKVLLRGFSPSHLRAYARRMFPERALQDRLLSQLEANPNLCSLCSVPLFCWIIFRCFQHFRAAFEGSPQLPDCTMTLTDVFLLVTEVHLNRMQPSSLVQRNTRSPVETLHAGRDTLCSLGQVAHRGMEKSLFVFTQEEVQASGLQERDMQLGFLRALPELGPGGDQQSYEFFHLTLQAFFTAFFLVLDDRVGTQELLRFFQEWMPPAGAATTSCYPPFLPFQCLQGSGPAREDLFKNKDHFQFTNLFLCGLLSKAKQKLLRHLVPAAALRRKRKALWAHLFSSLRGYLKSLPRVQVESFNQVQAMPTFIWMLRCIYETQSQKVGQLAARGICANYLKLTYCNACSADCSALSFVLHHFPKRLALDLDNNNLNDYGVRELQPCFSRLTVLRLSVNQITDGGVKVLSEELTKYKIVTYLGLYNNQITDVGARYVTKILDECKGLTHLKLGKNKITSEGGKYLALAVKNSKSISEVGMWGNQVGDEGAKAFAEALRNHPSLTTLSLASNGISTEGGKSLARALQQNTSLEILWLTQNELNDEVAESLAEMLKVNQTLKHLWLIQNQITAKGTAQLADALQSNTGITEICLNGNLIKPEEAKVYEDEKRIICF

[17] = biological target: Tumor necrosis factor (Homo sapiens, UniProt P01375); experiment: TNFa-triggered NF-kB activation inhibitors, SAR follow-up, cell-based, revised (AID 2337); format: functional
Tumor necrosis factor, sequence (P01375 whole entry): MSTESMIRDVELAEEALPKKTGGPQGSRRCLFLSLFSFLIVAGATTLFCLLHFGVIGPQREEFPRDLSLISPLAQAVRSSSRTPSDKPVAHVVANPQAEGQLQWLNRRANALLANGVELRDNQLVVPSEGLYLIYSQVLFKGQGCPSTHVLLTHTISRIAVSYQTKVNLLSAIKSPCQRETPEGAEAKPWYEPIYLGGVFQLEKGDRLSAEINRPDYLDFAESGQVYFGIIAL

[18] = tested on: HEK293; experiment: cells; details: Homo sapiens
[19] = biological target: Beta-galactosidase (Escherichia coli, UniProt Q8VNN2); experiment: beta-galactosidase enzyme inhibitors and activators, dose response, artefact control for CCR6 antagonist project, biochemical, E. coli enzyme, set 3 (AID 504712); format: functional
Beta-galactosidase, sequence (Q8VNN2 whole entry): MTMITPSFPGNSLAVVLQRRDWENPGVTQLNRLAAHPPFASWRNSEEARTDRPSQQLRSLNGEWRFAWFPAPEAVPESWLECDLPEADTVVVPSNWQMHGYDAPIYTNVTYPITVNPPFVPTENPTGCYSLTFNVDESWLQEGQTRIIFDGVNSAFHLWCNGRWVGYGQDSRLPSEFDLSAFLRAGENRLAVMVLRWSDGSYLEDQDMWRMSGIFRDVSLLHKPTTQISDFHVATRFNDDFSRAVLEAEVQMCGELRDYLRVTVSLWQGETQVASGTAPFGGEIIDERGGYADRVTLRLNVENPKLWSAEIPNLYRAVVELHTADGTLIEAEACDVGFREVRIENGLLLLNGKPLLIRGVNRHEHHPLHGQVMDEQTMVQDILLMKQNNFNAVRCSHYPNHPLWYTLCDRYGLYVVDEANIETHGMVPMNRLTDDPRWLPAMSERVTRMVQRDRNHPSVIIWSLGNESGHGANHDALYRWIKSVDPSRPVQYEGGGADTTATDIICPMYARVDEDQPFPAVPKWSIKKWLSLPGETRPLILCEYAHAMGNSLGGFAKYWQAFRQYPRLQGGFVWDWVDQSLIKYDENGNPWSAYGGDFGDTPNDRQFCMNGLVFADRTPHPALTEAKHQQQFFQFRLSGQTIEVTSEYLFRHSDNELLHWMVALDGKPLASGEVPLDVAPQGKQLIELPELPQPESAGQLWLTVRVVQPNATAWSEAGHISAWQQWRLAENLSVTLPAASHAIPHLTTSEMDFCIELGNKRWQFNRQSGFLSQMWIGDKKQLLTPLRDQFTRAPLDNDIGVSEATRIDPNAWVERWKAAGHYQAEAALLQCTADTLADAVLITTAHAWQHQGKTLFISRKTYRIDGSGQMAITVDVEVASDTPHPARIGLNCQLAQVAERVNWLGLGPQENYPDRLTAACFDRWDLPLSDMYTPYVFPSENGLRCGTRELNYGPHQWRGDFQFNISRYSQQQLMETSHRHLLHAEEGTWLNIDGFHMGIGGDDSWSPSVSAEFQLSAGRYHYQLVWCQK

[20] = THP-1 cell cytotoxicity, dose response, cytotoxicity control for Vif-APOBEC3G degradation inhibitor project, THP-1 cells (AID 1117359); format: functional; details: Human immunodeficiency virus 1, THP-1
[21] = biological target: T4, Hexokinase HKDC1 (Homo sapiens, UniProt Q2TB90); experiment: HKDC1 hexokinase inhibitors, dose response, biochemical, W721R variant (AID 504729); format: functional
T4 sequence (Q2TB90 whole entry): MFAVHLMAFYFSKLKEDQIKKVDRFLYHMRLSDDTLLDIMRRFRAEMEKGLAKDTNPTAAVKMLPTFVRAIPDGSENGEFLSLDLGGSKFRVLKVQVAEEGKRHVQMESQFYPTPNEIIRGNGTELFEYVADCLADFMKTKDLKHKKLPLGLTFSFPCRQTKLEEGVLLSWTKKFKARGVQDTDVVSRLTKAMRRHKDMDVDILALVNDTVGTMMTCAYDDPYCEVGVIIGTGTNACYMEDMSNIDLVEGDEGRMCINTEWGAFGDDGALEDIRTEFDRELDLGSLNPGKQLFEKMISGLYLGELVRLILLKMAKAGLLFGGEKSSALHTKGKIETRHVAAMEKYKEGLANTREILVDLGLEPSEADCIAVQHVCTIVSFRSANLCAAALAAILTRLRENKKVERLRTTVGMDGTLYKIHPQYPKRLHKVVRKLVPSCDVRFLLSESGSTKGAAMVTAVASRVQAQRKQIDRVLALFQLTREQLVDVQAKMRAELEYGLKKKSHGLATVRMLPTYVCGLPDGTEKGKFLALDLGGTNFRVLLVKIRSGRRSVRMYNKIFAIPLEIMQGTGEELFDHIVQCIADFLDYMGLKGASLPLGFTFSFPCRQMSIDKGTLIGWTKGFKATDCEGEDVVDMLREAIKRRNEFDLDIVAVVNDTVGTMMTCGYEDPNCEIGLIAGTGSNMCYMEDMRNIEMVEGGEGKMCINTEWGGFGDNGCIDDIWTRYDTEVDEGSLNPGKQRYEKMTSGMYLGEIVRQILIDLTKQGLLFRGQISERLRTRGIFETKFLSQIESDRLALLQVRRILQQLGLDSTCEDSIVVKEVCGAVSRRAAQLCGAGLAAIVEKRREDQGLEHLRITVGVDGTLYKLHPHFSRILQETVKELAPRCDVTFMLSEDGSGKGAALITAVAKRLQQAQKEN

[22] = biological target: Glucose-6-phosphate 1-dehydrogenase (Homo sapiens, UniProt P11413); experiment: human G6PD enzyme inhibitors, dose response, selectivity assay for P. falciparum G6PD inhibitor project, biochemical, fluorescence (AID 504792); format: functional
Glucose-6-phosphate 1-dehydrogenase, sequence (P11413 whole entry): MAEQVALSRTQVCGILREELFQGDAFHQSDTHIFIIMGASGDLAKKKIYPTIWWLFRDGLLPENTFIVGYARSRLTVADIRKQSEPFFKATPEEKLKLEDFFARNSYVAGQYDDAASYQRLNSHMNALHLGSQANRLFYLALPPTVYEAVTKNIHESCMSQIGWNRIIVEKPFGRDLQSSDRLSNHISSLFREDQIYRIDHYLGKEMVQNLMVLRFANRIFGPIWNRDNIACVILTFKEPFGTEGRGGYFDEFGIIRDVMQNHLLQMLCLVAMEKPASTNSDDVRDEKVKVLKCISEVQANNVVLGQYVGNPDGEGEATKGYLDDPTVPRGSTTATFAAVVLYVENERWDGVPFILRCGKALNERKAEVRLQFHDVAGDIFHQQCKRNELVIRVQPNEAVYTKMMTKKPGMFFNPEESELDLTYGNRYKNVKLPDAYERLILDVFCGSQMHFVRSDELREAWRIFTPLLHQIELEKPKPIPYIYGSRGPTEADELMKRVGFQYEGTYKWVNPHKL

[23] = biological target: Genome polyprotein (dengue virus type 2, UniProt P29990); experiment: Dengue-2 NS5 methyltransferase inhibitors, primary screen, biochemical, confirmation dose response (AID 588689); format: functional
Genome polyprotein, sequence (P29990 2492-3391 limits assumed): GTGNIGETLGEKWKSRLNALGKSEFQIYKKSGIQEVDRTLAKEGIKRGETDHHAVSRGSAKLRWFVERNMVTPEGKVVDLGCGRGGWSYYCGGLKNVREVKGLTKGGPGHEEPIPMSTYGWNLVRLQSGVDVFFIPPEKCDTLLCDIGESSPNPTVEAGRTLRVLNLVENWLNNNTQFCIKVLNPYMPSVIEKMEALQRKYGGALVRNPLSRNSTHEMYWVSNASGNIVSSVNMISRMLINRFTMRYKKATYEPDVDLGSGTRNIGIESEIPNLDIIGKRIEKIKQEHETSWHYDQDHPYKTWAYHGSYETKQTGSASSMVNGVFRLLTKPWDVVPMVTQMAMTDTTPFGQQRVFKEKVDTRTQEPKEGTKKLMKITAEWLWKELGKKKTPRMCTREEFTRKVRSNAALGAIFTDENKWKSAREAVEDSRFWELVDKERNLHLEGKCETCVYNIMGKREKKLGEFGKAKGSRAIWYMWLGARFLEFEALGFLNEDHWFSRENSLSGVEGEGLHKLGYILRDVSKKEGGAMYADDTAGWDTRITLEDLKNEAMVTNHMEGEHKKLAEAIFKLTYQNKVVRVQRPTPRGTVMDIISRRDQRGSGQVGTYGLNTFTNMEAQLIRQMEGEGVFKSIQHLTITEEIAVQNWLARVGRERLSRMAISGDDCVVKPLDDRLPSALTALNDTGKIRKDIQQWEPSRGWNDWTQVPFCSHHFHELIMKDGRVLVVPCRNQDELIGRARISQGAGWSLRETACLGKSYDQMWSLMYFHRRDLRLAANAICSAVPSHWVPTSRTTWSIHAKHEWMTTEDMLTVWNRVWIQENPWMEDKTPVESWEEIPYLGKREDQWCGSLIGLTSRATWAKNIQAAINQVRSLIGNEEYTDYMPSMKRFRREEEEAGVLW

[24] = tested on: Vero; experiment: West Nile virus antiviral activity, cell-based, CPE readout (AID 1621); format: functional; details: Chlorocebus sabaeus
[25] = tested on: Vero; experiment: West Nile virus CPE inhibition, SAR follow-up, cell-based, synthesized analogs (AID 2238); format: functional; details: Chlorocebus sabaeus
[26] = tested on: Vero; experiment: cytotoxicity of synthesized analogs in Vero cells, SAR follow-up, cytotoxicity control for West Nile virus antiviral project, cell-based, set II (AID 2402); format: functional; details: Chlorocebus sabaeus
[27] = Vero E6 cell cytotoxicity, dose response, cytotoxicity control for non-replicating M. tuberculosis project, secondary assay (AID 492998); format: functional, VeroE6; details: Vero C1008
[28] = biological target: Nuclear receptor subfamily 5 group A member 2 (Homo sapiens, UniProt O00482); format: functional, cell-based;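 also: HEK293T cells transfected with LRH-1 and a StAR promoter luciferase reporter; potency for inhibitors that lower LRH-1 driven reporter light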
Nuclear receptor subfamily 5 group A member 2, sequence (O00482 whole entry): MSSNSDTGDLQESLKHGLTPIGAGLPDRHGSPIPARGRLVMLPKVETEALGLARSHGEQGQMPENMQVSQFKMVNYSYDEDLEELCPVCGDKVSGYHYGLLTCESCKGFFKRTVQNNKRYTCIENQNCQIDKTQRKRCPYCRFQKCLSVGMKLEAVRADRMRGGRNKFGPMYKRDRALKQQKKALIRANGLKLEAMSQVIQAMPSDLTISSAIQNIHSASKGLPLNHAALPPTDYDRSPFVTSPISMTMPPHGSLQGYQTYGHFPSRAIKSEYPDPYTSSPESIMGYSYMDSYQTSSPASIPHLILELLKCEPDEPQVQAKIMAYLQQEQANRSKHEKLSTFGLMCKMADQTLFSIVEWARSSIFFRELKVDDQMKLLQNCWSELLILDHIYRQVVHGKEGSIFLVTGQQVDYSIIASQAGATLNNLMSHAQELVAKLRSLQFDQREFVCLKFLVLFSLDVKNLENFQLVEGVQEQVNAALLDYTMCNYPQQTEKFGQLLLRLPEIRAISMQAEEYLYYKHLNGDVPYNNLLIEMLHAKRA

[29] = inhibitors of intracellular T. cruzi replication, confirmation, NIH3T3 host cells, beta-gal luminescence (AID 2044); format: functional, cell-based;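 also: intracellular parasites grown in NIH/3T3 mouse fibroblasts as host cells; luminescent beta-galactosidase reporter signal from transgenic T. cruzi replicating inside host cells; inhibitors lower the luminescence signal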
[30] = biological target: Steroidogenic factor 1 (Homo sapiens, UniProt Q13285); experiment: Counterscreen for inverse agonists of the liver receptor homolog-1 (LRH-1; NR5A2): Luminescence-based cell-based high throughput dose response assay to identify inverse agonists of the Steroidogenic Factor 1 Nuclear Receptor (SF1; NR5A1).; format: functional
Steroidogenic factor 1, sequence (Q13285 whole entry): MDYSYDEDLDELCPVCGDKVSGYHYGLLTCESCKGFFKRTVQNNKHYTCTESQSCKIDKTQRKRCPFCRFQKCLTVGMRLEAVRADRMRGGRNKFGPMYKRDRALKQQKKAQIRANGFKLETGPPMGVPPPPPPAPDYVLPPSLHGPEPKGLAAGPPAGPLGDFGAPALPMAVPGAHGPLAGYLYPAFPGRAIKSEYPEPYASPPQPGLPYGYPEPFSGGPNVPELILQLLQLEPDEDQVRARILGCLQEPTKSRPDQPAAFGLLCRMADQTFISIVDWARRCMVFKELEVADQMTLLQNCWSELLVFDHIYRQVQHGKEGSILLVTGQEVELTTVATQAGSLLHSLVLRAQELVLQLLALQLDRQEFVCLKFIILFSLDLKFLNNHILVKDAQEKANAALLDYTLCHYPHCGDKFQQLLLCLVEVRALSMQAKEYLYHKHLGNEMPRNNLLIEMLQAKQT

[31] = cytotoxicity toward NIH3T3 fibroblasts, dose response, counter-screen, cell-based, ATP luminescence, mouse fibroblasts (AID 2010); format: functional;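 also: cells exposed to compound for about 90 hours before reading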
[32] = cells
[33] = microbe, parasite or virus in culture; format: functional; details: Mycobacterium tuberculosis
[34] = StAR promoter reporter inhibition counter-screen, dose response, counter-screen for LRH-1 inverse agonist project, cell-based, luminescence, luciferase reporter (AID 651969); format: functional
[35] = THP-1 cell cytotoxicity, dose response, cytotoxicity control for non-replicating M. tuberculosis project (AID 489025); format: functional
[36] = cells; format: functional

SMILES: O=C1NC(=O)N(Cc2ccccc2)C(=O)/C1=C/C=C/c1ccco1
- AC50 [1]: 1.47 µM (active)
- IC50 [2]: 17.5 µM (active)
- IC50 [3]: > 20 µM (inactive)
- IC50 [4]: > 20 µM (inactive)
- EC50 [5]: 5.74 µM (inconclusive)
- AC50 [6]: 4.85 µM (active)
- EC50 [7]: 4.14 µM (active)
- EC50 [8]: > 20 µM (inactive)
- EC50 [9]: 5.85 µM (inconclusive)
- EC50 [10]: > 20 µM (inactive)
- EC50 [11]: > 32 µM (inactive)
- EC50 [12]: 8.18 µM (active)
- IC50 [13]: > 20 µM (inactive)

SMILES: Cc1cc(-c2ccccc2)n2nc(C)c(C#N)c2n1
- AC50 [14]: 3.3 µM (active)
- AC50 [15]: 15.5 µM (active)

SMILES: Cc1cccc(-n2ncc3c2CCCC3NC(=O)C2(C(N)=O)CC2)c1C (centres undefined)
- IC50 [2]: 9.93 µM (active)
- IC50 [3]: 16.2 µM (inactive)
- IC50 [4]: > 20 µM (inactive)
- IC50 [16]: 4.31 µM (active)
- EC50 [8]: 19.7 µM (active)
- EC50 [10]: 2.53 µM (active)
- IC50 [17]: 14.5 µM (active)
- IC50 [18]: > 20 µM (inactive)
- IC50 [13]: > 20 µM (inactive)

SMILES: COC1=C(OC)C(=O)C(Sc2ccc3ccccc3c2)=CC1=O
- IC50 [19]: > 66.6 µM (inactive)
- CC50 [20]: > 40 µM (active)
- IC50 [21]: 3.33 µM (active)
- IC50 [22]: 18.7 µM (active)
- IC50 [23]: 5.09 µM (active)

SMILES: O=C(CSc1nc2ccccc2c(=O)n1-c1ccc(F)cc1F)Nc1ccc(N2CCOCC2)cc1
- IC50 [24]: 26.7 µM (active)
- IC50 [25]: 38.1 µM (active)
- CC50 [26]: > 200 µM (active)

SMILES: Cc1onc(-c2c(F)cccc2Cl)c1C(=O)ON=C(N)c1ccc([N+](=O)[O-])o1
- CC50 [27]: > 20 µM (active)
- IC50 [28]: 0.143 µM (active)
- EC50 [29]: < 0.1 µM (active)
- IC50 [30]: 0.143 µM (active)
- EC50 [31]: 12.7 µM (active)
- EC50 [32]: 0.015 µM (active)
- CC50 [33]: 21.2 µM (active)
- IC50 [34]: 35.9 µM (inactive)
- CC50 [35]: 17.8 µM (active)
- IC50 [36]: 4.6 µM (active)

SMILES: Cc1ccc(C(NC(=O)C(C)C)c2cc([N+](=O)[O-])c3cccnc3c2O)cc1 (centres undefined)
- AC50 [1]: 1.02 µM (active)
- IC50 [19]: > 66.6 µM (inactive)
